Assays:
HCV Genotype 1A Replicon = assay: Replicon assay, genotype 1a subgenomic replicon, luciferase readout; format: cell-based; details: Hepatitis C virus, 48 h, Table 3; luciferase activity after 48 hours
Procedure, shortened: (§1)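 EC50 values came from four-parameter logistic fits of 10-point dose responses (3–4-fold steps, final 0.03–50 μM, 0.5–1% DMSO), normalized against no-compound and no-cell controls. Firefly luciferase was read 48 h after plating 0.5×10^4 replicon cells/well, 1b ET or 1a Apath-derived line.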

HCV Genotype 1B Replicon = assay: Replicon assay, genotype 1b subgenomic replicon (ET cell line), luciferase readout; format: cell-based; details: Hepatitis C virus, 48 h, Table 3; luciferase activity after 48 hours
Procedure, shortened: as §1

Row | Structure (SMILES) | EC50 (HCV Genotype 1A Replicon) [nM] | EC50 (HCV Genotype 1B Replicon) [nM]
1 | O=C(c1nc2c(C(F)(F)F)cc(Br)cn2c1Cl)N1CCC(N2C(=O)COC2=O)CC1 [Compound 142, 3-(1-{[6-bromo-3-chloro-8-(trifluoromethyl)imidazo[1,2-a]pyridin-2-yl]carbonyl}-4-piperidinyl)-1,3-oxazolidine-2,4-dione] | 70 | 70
2 | CC(C)Cc1cc(C(F)(F)F)c2nc(C(=O)N3CC[C@H](N4CCOC4=O)[C@@H](O)C3)c(Cl)n2c1 (racemic) [Compound 215, (±) trans-3-(1-{[3-chloro-6-(2-methylpropyl)-8-(trifluoromethyl)imidazo[1,2-a]pyridin-2-yl]carbonyl}-3-hydroxy-4-piperidinyl)-1,3-oxazolidin-2-one] | 90 | 350
3 | O=C(c1nc2c(C(F)(F)F)cc(C3CC3)cn2c1Cl)N1CC[C@H](N2CCCC2=O)[C@@H](O)C1 (racemic) [Compound 225, (±) trans-1-(1-{[3-chloro-6-cyclopropyl-8-(trifluoromethyl)imidazo[1,2-a]pyridin-2-yl]carbonyl}-3-hydroxy-4-piperidinyl)-2-pyrrolidinone] | 480 | 150
4 | CC1(C)COC(=O)N1C1CCN(C(=O)c2nc3c(C(F)(F)F)cc(-c4ccoc4)cn3c2Cl)CC1 [Compound 176, 3-(1-{[3-chloro-6-(3-furanyl)-8-(trifluoromethyl)imidazo[1,2-a]pyridin-2-yl]carbonyl}-4-piperidinyl)-4,4-dimethyl-1,3-oxazolidin-2-one] | ≥ 50100 | ≥ 50100
5 | CC(C)Oc1cc(C(F)(F)F)c2nc(C(=O)N3CCC(N4CCOC4=O)CC3)c(Cl)n2c1 [Compound 138, 3-(1-{[3-chloro-6-[(1-methylethyl)oxy]-8-(trifluoromethyl)imidazo[1,2-a]pyridin-2-yl]carbonyl}-4-piperidinyl)-1,3-oxazolidin-2-one] | 280 | 420
6 | O=C(c1nc2c(C(F)(F)F)cc(-c3ccoc3)cn2c1Cl)N1CC[C@H](N2CCCC2=O)[C@@H](O)C1 (racemic) [Compound 227, (±) trans-1-(1-{[3-chloro-6-(3-furanyl)-8-(trifluoromethyl)imidazo[1,2-a]pyridin-2-yl]carbonyl}-3-hydroxy-4-piperidinyl)-2-pyrrolidinone] | 690 | 340
7 | CC(=O)Nc1cc(C(F)(F)F)c2nc(C(=O)N3CCC(N4CCOC4=O)CC3)c(Cl)n2c1 [Compound 198, N-[3-chloro-2-{[4-(2-oxo-1,3-oxazolidin-3-yl)-1-piperidinyl]carbonyl}-8-(trifluoromethyl)imidazo[1,2-a]pyridin-6-yl]acetamide] | ≥ 5010 | ≥ 5010
8 | O=C(c1nc2c(C(F)(F)F)cc(C3CC3)cn2c1Cl)N1CC[C@H](N2C(=O)COC2=O)[C@@H](O)C1 (racemic) [Compound 224, (±) trans-3-(1-{[3-chloro-6-cyclopropyl-8-(trifluoromethyl)imidazo[1,2-a]pyridin-2-yl]carbonyl}-3-hydroxy-4-piperidinyl)-1,3-oxazolidine-2,4-dione] | 1430 | 210
9 | CN1CCN(C2CCN(C(=O)c3nc4c(C(F)(F)F)cc(-c5ccoc5)cn4c3Cl)CC2)C1=O [Compound 173, 1-(1-{[3-chloro-6-(3-furanyl)-8-(trifluoromethyl)imidazo[1,2-a]pyridin-2-yl]carbonyl}-4-piperidinyl)-3-methyl-2-imidazolidinone] | 750 | 480
10 | O=C(c1cn2cc(-c3ccoc3)cc(C(F)(F)F)c2n1)N1CCC(N2CCOC2=O)CC1 [Compound 203, 3-(1-{[6-(3-furanyl)-8-(trifluoromethyl)imidazo[1,2-a]pyridin-2-yl]carbonyl}-4-piperidinyl)-1,3-oxazolidin-2-one] | 320 | 2340
11 | CO[C@H]1CN(C(=O)c2nc3c(C(F)(F)F)cc(C4CC4)cn3c2Cl)CC[C@@H]1N1CCOC1=O (racemic) [Compound 238, (±) trans-3-[1-{[3-chloro-6-cyclopropyl-8-(trifluoromethyl)imidazo[1,2-a]pyridin-2-yl]carbonyl}-3-(methyloxy)-4-piperidinyl]-1,3-oxazolidin-2-one] | ≥ 5010 | ≥ 5010
12 | O=C(c1nc2c(C(F)(F)F)cc(Cl)cn2c1Cl)N1CCC(N2CCOC2=O)CC1 [Compound 112, 3-(1-{[3,6-dichloro-8-(trifluoromethyl)imidazo[1,2-a]pyridin-2-yl]carbonyl)-4-piperidinyl)-1,3-oxazolidin-2-one] | 130 | 170
13 | O=C(c1nc2c(C(F)(F)F)cc(C3CCCO3)cn2c1Cl)N1CCC(N2CCOC2=O)CC1 (centres unmarked) [Compound 134, 3-(1-{[3-chloro-6-(tetrahydro-2-furanyl)-8-(trifluoromethyl)imidazo[1,2-a]pyridin-2-yl]carbonyl}-4-piperidinyl)-1,3-oxazolidin-2-one] | 320 | 2190
14 | N#Cc1c(C(=O)N2CCC(N3CCOC3=O)CC2)nc2c(C(F)(F)F)cc(-c3ccoc3)cn12 [Compound 160, 6-(3-furanyl)-2-{[4-(2-oxo-1,3-oxazolidin-3-yl)-1-piperidinyl]carbonyl}-8-(trifluoromethyl)imidazo[1,2-a]pyridine-3-carbonitrile] | 10 | 10
15 | O=C(c1nc2c(C(F)(F)F)cc(I)cn2c1Br)N1CCC(N2C(=O)COC2=O)CC1 [Compound 195, 3-(1-{[3-bromo-6-iodo-8-(trifluoromethyl)imidazo[1,2-a]pyridin-2-yl]carbonyl}-4-piperidinyl)-1,3-oxazolidine-2,4-dione] | 50 | 30
16 | CCn1cc(-c2cc(C(F)(F)F)c3nc(C(=O)N4CCC(N5CCOC5=O)CC4)c(Cl)n3c2)cn1 [Compound 125] | 90 | 13300
17 | O=C(c1nc2c(C(F)(F)F)cc(-c3ccc(F)cc3)cn2c1Cl)N1CCC(N2CCOC2=O)CC1 [Compound 115, 3-(1-{[3-chloro-6-(4-fluorophenyl)-8-(trifluoromethyl)imidazo[1,2-a]pyridin-2-yl]carbonyl}-4-piperidinyl)-1,3-oxazolidin-2-one] | 60 | 3690
18 | CC(C)Cc1cc(C(F)(F)F)c2nc(C(=O)N3CCC(N4CCOC4=O)CC3)c(Cl)n2c1 [Compound 130, 3-(1-{[3-chloro-6-(2-methylpropyl)-8-(trifluoromethyl)imidazo[1,2-a]pyridin-2-yl]carbonyl}-4-piperidinyl)-1,3-oxazolidin-2-one] | 20 | 50
19 | O=C(c1nc2c(C(F)(F)F)cc(-c3ccoc3)cn2c1CO)N1CCC(N2CCOC2=O)CC1 [Compound 166, 3-(1-{[6-(3-furanyl)-3-(hydroxymethyl)-8-(trifluoromethyl)imidazo[1,2-a]pyridin-2-yl]carbonyl}-4-piperidinyl)-1,3-oxazolidin-2-one] | 920 | 2000
20 | C[C@@H]1C[C@@H](N2CCOC2=O)CCN1C(=O)c1nc2c(C(F)(F)F)cc(-c3ccoc3)cn2c1Cl (racemic) [Compound 206, (±) trans-3-(1-{[3-chloro-6-(3-furanyl)-8-(trifluoromethyl)imidazo[1,2-a]pyridin-2-yl]carbonyl}-2-methyl-4-piperidinyl)-1,3-oxazolidin-2-one] | 70 | 140
21 | C[C@@H]1OC(=O)N(C2CCN(C(=O)c3nc4c(C(F)(F)F)cc(Br)cn4c3Cl)CC2)C1=O [Compound 190, (5S)-3-(1-{[6-bromo-3-chloro-8-(trifluoromethyl)imidazo[1,2-a]pyridin-2-yl]carbonyl}-4-piperidinyl)-5-methyl-1,3-oxazolidine-2,4-dione] | 1500 | 70
22 | O=C(c1nc2c(C(F)(F)F)cc(-c3cccnc3)cn2c1Cl)N1CCC(N2CCOC2=O)CC1 [Compound 136, 3-(1-{[3-chloro-6-(3-pyridinyl)-8-(trifluoromethyl)imidazo[1,2-a]pyridin-2-yl]carbonyl}-4-piperidinyl)-1,3-oxazolidin-2-one] | 320 | 1840
23 | O=C(c1nc2c(C(F)(F)F)cc(-c3cccc(O)c3)cn2c1Cl)N1CCC(N2CCOC2=O)CC1 [Compound 122] | 2340 | 15800
24 | O=C(c1nc2c(C(F)(F)F)cc(C3CC3)cn2c1Cl)N1CC[C@@H](N2CCOC2=O)[C@H](O)C1 (single isomer, unassigned; enantiomer 1) [Compound 220, 3-((trans)-1-{[3-chloro-6-cyclopropyl-8-(trifluoromethyl)imidazo[1,2-a]pyridin-2-yl]carbonyl}-3-hydroxy-4-piperidinyl)-1,3-oxazolidin-2-one (Enantiomer 1)] | 20 | 30
25 | N#Cc1c(C(=O)N2CCC(N3CCOC3=O)CC2)nc2c(C(F)(F)F)cc(C3CC3)cn12 [Compound 162, 6-cyclopropyl-2-{[4-(2-oxo-1,3-oxazolidin-3-yl)-1-piperidinyl]carbonyl}-8-(trifluoromethyl)imidazo[1,2-a]pyridine-3-carbonitrile] | 10 | 10
26 | O=C(c1nc2c(C(F)(F)F)cc(Br)cn2c1Cl)N1CCC(N2CCCC2=O)CC1 [Compound 143, 1-(1-{[6-bromo-3-chloro-8-(trifluoromethyl)imidazo[1,2-a]pyridin-2-yl]carbonyl}-4-piperidinyl)-2-pyrrolidinone] | 480 | 200
27 | O=C(c1nc2c(C(F)(F)F)cc(C3CC3)cn2c1Cl)N1CCC(N2CCCC2=O)CC1 [Compound 201, 1-(1-{[3-chloro-6-cyclopropyl-8-(trifluoromethyl)imidazo[1,2-a]pyridin-2-yl]carbonyl}-4-piperidinyl)-2-pyrrolidinone] | 100 | 30
28 | O=C(c1nc2c(C(F)(F)F)cc(C3CC3)cn2c1Br)N1CCC(N2CCOC2=O)CC1 [Compound 197, 3-(1-{[3-bromo-6-cyclopropyl-8-(trifluoromethyl)imidazo[1,2-a]pyridin-2-yl]carbonyl}-4-piperidinyl)-1,3-oxazolidin-2-one] | 10 | 10
